Legend:
recombinant MMP-2 = target: T1, recombinant MMP-2 (Homo sapiens, UniProt P08253); experiment: MMP-2 Inhibitor Screening Assay Kit (colorimetric); format: biochemical; settings: lower value = higher inhibitory activity
T1 construct: purchased ab139446
T1 sequence (P08253 110-660): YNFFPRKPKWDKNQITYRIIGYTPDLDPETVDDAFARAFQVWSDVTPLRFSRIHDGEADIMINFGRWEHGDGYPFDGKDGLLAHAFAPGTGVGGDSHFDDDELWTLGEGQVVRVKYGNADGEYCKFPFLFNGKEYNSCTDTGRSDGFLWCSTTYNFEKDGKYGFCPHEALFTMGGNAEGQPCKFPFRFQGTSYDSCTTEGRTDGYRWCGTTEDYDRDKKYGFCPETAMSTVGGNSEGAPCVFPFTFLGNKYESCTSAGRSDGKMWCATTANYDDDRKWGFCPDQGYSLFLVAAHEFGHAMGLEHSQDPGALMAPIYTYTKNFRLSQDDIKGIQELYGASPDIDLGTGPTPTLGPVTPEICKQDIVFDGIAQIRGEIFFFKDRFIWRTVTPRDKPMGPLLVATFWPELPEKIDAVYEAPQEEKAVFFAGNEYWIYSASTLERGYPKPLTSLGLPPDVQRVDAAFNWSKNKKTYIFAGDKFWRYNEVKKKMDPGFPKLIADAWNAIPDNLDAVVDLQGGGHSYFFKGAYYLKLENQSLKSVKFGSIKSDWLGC
Method: MMP-2 is an important target for inhibitor screening due to its involvement in cancer growth, angiogenesis, and metastasis. The MMP-2 screening assay was carried out with a commercially available MMP-2 Inhibitor Screening Assay Kit (Colorimetric, Catalog: ab139446) based on the manufacturers protocol. This assay is based on quantification of recombinant MMP-2 activity using a colorimetric assay (MMP-2 degrades a chromogenic substrate). The assay provides NNGH (N-isobutyl-N-(4-methoxyphenylsulfonyl) glycyl hydroxamic acid), a small molecule inhibitor, as a positive control (NNGH). […] Each determination was run in duplicate.
% Inhibition rate=(Vinhibitor/Vcontrol)×100
Briefly, MMP Substrate and MMP Inhibitor were warmed to room temperature to thaw DMSO. MMP Inhibitor (NNGH), MMP-2 substrate and MMP-2 enzyme were diluted with assay buffer to required concentration. 20 μL of MMP-2 enzyme and MMP-2 inhibitor (peptides, Chlorotoxin and NNGH) was added, then 50 μL of assay buffer was added and the reaction mixture incubated at 37° C. for 1 h. After incubation, 10 μL of MMP Substrate was added to start reaction. The reactions were continuously read at 412 nm in a microplate reader. Data was recorded at 1 min. time intervals for 10 to 20 min. The data as was plotted as optical density (OD) versus time for each sample. The reaction velocity (V) was obtained in OD/min: determine the slope of a line fit to the linear portion of the data plot using an appropriate routine. Then using the equation above the inhibitor % activity remaining was calculated. The control was without inhibitor.

081024 cells = experiment: BME cell invasion assay, 081024; format: cell-based, human; settings: 1 μM, 24 h
Method: (§1) To assess whether the ability of SEQ ID NO.1 to inhibit MMP-2 activity and, to a lesser extent, reduce the production of matrix proteinases and downregulate the expression of EMT markers, was of functional consequence in reducing the invasiveness of the GBM cells, the ability of the peptide was tested at the concentrations of 1, 10 and 100 μM (none of which are toxic to cells) to inhibit invasion of the GBM cells through a basement membrane. This assay, described in more detail below, is an in vitro surrogate for measurement of the in vivo invasion by tumour cells of their environment.
(§2) The cell invasion assay employs a simplified Boyden chamber-like design that consists of two chambers separated by a filter (an 8 μm polycarbonate (PC) membrane) coated with basement membrane or different extracellular matrix components. The cell suspension is placed in the top chamber and incubated in the presence of test media containing specific chemo-attractants in the bottom chamber. Cells migrate from the top chamber to the bottom of the filter by degrading the coating over the filter pores. Detection of cell invasion is quantified using Calcein AM. Cell dissociation/Calcein AM solution is placed in the bottom chamber to dissociate the migrating cells from the filter. Calcein AM is internalized by the cells, and intracellular-esterases cleave the aceto-methylester (AM) moiety. Free Calcein fluoresces brightly and is used to quantitate the number of cells that have invaded or migrated by comparison with a standard curve (In Vitro Technologies Pty Ltd, (https://lifescience.invitro.com.au/brands/r-and-d-systems/).
(§3) The filter was coated with PathClear® growth factor reduced BME. The selected peptides were applied to the cells in both upper and lower wells to make sure the concentration of peptides were the same and the chemoattractant was serum at a concentration of 2% (for adherent U87 & U251 cells) or growth factor mix required in the medium (for non- adherent, 081024 oncospheres).
(§4) Cell invasion was determined using CultureCoat® 96 Well Medium BME Cell Invasion assay. Briefly, the cells were pre-starved 24 h before harvest. Then seeding 25,000 per well of cell in the upper chamber with serum free medium together different concentration of peptide. The bottom chamber also added different concentration of peptides with 2% (V/V) serum for GBM adherent cells or growth factor mix for neurosphere cells as chemoattractant. After 24 h incubation, the invading cells were measured by Calcein AM and calculated based on standard curve.
(§5) The results are shown in Table 12, the results are expressed as % inhibition.

U251 cells = experiment: BME cell invasion assay, U251; format: cell-based, human; settings: 1 μM, 24 h
Method: as §1, §2, §3, §4, §5

U87 cells = experiment: BME cell invasion assay, U87; format: cell-based, human; settings: 1 μM, 24 h
Method: as §1, §2, §3, §4, §5

| Compound | remaining activity (recombinant MMP-2; 1.3 μM) | Invasion Inhibition Index (%) (081024 cells) | Invasion Inhibition Index (%) (U251 cells) | Invasion Inhibition Index (%) (U87 cells) | remaining activity (recombinant MMP-2; 1 μM, 1 h preincubation at 37° C.) |
| --- | --- | --- | --- | --- | --- |
| COc1ccc(S(=O)(=O)N(CC(=O)NO)CC(C)C)cc1 [NNGH, N-isobutyl-N-(4-methoxyphenylsulfonyl) glycyl hydroxamic acid, reference compound] | 2.29% |  |  |  |  |
| Chlorotoxin [reference compound] |  | 45.0% | 28.50% | 39.5% | 67.94% |
